The test system of assay [1] is HUVECs. Kind of assay: Cell viability assay (MTT assay), growth inhibition of HUVECs. It counts as cell-based, human. On the procedure:
(§1) Human umbilical vein endothelial cells (HUVECs; #8000) were purchased from the ScienCell Research Laboratories (San Diego, Calif., USA). The cells were seeded on gelatin-coated culture dishes and grown in the commercial endothelial cell medium (#1001; ScienCell) containing 5% fetal bovine serum (FBS; #0025; ScienCell), 30 μg/mL endothelial cell growth supplements (ECGS; #1052; ScienCell), 100 units/mL penicillin G, and 100 μg/mL streptomycin sulfates (#0503; ScienCell). Cells at passage 3-6 were used for experiments. Mouse Lewis lung carcinoma cell line 1 (LLC1; #60050) was bought from the Food Industry Research and Development Institute (Hsinchu, Taiwan) and cultured in Gibco® Dulbecco's modified Eagle's medium (#12800-017; Invitrogen, Carlsbad, Calif., USA) supplemented with 10% FBS (HyClone, Logan, Utah, USA), 4 mM L-glutamine, 1.5 g/L sodium bicarbonate, 100 units/mL penicillin G, and 100 μg/mL streptomycin. All cells were incubated in a humidified 5% CO2 atmosphere at 37° C. and culture media was changed every 2˜3 days.
The experiments were performed according to our previous study with minor modifications (Pan et al., 2010). Briefly, the cells (2×10^4 cells/well) were seeded and grown under normal culture medium for 24 h. After another 24 h of starvation with 0.5% FBS, the cells were treated with several concentrations (1, 2, 4, 8, and 16 μM) of the tested compounds for 24 h and then incubated with 5 mg/mL of MTT (3-[4,5-dimethyl thiazol-2-yl]-2,5-diphenyl tetrazolium bromide) for 2 h. After that, the cells were washed with 1×PBS and then dimethyl sulfoxide (DMSO) was added to each well. Absorbance values at 570 nm were determined for each well using 650 nm as the reference wavelength. The absorbance of the control group (treated with 5% or 10% FBS alone) was defined as 100%.
In general terms: Tetrazolium assays rely on reduction of a dye to a coloured formazan, in cell work by metabolically active cells.

In the next assay the test system is LLC1 lung cancer cells. Kind of assay: Cell viability assay (MTT assay), growth inhibition of LLC1 cells. To be noted: normal culture condition. It counts as cell-based, mouse. On the procedure:
as §1
The experiments were performed according to our previous study with minor modifications (Pan et al., 2010). […] Absorbance values at 570 nm were determined for each well using 650 nm as the reference wavelength. The absorbance of the control group (treated with 5% or 10% FBS alone) was defined as 100%.

For assay [2], the system named is VEGF-induced vessel formation within the Matrigel plug. Kind of assay: Matrigel plug assay (VEGF-induced neovascularization). In kind it is in vivo, mouse. The conditions noted are these: mice, dose-dependent. The protocol: Male C57BL/6 (average of 6-week-old) mice were divided randomly into four groups (n=3/group): Group 1 (control group; injection with 500 μL cold-Matrigel [#356237; BD Biosciences]), Group 2 (injection with 500 μL cold-Matrigel containing 100 ng/mL VEGF and 100 U/mL heparin), Group 3 (injection with 4 μM […] dissolved in 500 μL cold-Matrigel containing 100 ng/mL VEGF and 100 U/mL heparin), and Group 4 (injection with 8 μM […] dissolved in 500 μL cold-Matrigel containing 100 ng/mL VEGF and 100 U/mL heparin). After 1 week adaptation, the mice were anesthetized and injected subcutaneously with pre-prepared cold-Matrigel gel mentioned above into the left groin region to form jelly-like plug under normal body temperature. The vascular endothelial cells will be attracted by Matrigel plug-released VEGF to form the new vessel within the Matrigel plug, whose process will be suppressed by anti-angiogenic substances added in the Matrigel plugs. After 7 days, the mice were sacrificed and the Matrigel plug was recovered and photographed. The harvested Matrigel plugs were further homogenized in 1× phosphate buffered saline (PBS) and then centrifuged at 10000×g for 10 min at 4° C. The Drabkin's Reagent (#D5941; Sigma-Aldrich, Louis, Mo., USA) was applied for examining the hemoglobin content in the supernatants of the homogenized Matrigel plugs according to the manufacturer's instructions. […]

Assay [3] deals with HUVECs. Kind of assay: Cell cycle analysis by flow cytometry. In kind it is cell-based, human. The conditions noted are these: 24 h, FIG. 2E. The protocol:
The experiments were performed according to our previous report with minor modifications (Pan et al., 2010). Briefly, the HUVECs (5×10^5 cells/well) were seeded on 6-well plated and harvested after 24 h treatment of K20E (0.5, 1, and 2 μM). Harvested cells were fixed with 70% ice-cold ethanol overnight. Cell pellets were centrifuged (1500 rpm, 5 min, 4° C.) and then re-suspended in 500 μL of DNA staining buffer containing 4 μg/mL propidium iodide, 1% Triton X-100, and 0.5 mg/mL of RNase A. After incubation at 37° C. (water bath) for 30 min in the dark, the cell cycle phase distributions were detected and analyzed by using FACSCanto flow cytometer (BD Biosciences, San Jose, Calif., USA) and ModFit LT Program (Verify Software House, Topsham, Me., USA), respectively.
A general note: In flow cytometry, cells or beads pass a laser one at a time.

Assay [4] deals with HUVECs. Kind of assay: Transwell cell migration assay. In kind it is cell-based, human. To be noted: 0.5 μM, 16 h, FIG. 3A. On the procedure: (§2) For evaluating cell migration, the HUVECs (1×10^5 cells/well) suspended within serum-free culture medium were seeded on inner surface of the upper chamber (ThinCerts™ Cell Culture Inserts with 8 μm pore size; #662638; Greiner Bio-One Inc., Monroe, N.C., USA) placed in the lower chamber (wells of a 24-well plate). For examining the cell invasion, the HUVECs were pre-mixed with equal volume of thawed Matrigel and rapidly seeded on the upper chamber. After 2 h for cell attachment, K20E at different concentrations (0.5, 1, and 2 μM) were added in the upper and the lower chambers, while 5% FBS as a chemoattractant was added in the lower chamber to facilitate cell migration or invasion. After 16 h incubation, the culture medium (or Matrigel) was removed clearly from inside the upper chamber, and the migrated or invasion cells attached on the outer surface of the upper chamber were fixed with 10% formaldehyde for 10 min at RT. The fixed cells were subsequently counterstained with hematoxylin. Relative cell number of each groups was counted from five random regions by light microscopy using a 40-fold magnification. The cell number of the control group (treated with 5% FBS alone) was defined as 100%.

Assay [5] concerns HUVECs. Kind of assay: Matrigel cell invasion assay. It counts as cell-based, human. To be noted: 0.5 μM, 16 h, FIG. 3B. On the procedure: as §2

With `COC(=O)/C=C/c1cc(OC(C)=O)c2c(c1)[C@H](C(=O)OC)[C@@H](c1ccc(OC(C)=O)c(OC(C)=O)c1)O2` [K20E], the GI50 was about 7.5 µM in the assay on HUVECs [1] (Homo sapiens, HUVEC, 24 h, MTT assay, 24 h treatment, 5% FBS-stimulated HUVECs) and about 79.4 µM in the assay with LLC1 lung cancer cells (Mus musculus, LLC1 lung cancer cells, data not shown, read-out: GI50 value on LLC1 (concentration that causes 50% growth inhibition)). Moreover, the “5% FBS-stimulated cell growth of the HUVECs” value in the assay with HUVECs [1] (dose-dependent, FIG. 2A) is recorded as “markedly reduced”. For the same molecule, in the assay on LLC1 lung cancer cells, the “cell viability of the LLC1 lung cancer cells” value was “significantly inhibit”. Besides, in assay [2] (4 and 8 μM, not at lower dose (1 and 2 μM), FIG. 1B upper panel), the “neovessel formation within the Matrigel plug with VEGF” value is “significantly decreased”. Besides, the “hemoglobin content of the implanted Matrigel plugs with VEGF” value in assay [2] (compared to Matrigel with VEGF alone, FIG. 1B lower panel) is reported as “obviously diminished”. Moreover, the “cells in sub-G1 phases (apoptosis)” value in the assay with HUVECs [3] (0.5 μM) was “significantly induce cells in sub-G1 phases (apoptosis)”. Moreover, the “cell cycle arrest in G2/M phase” value in the assay on HUVECs [3] (1 μM) was “arrest cells in G2/M phase”. For the same molecule, in the assay on HUVECs [4], the “5% FBS-induced migration of the HUVECs” value is listed as “markedly abolished”. Also, the “5% FBS-induced cell invasion of the HUVECs” value in the assay on HUVECs [5] is given as “largely suppressed”.

For the origin of these results see US11066378B2, “Caffeic acid derivatives for anti-angiogenesis” (Taipei Medical University, priority 2015, dated 2021).
